Consider two substances from patent US20080305085A1, “Compositions And Methods For Stem Cell Expansion” (priority 2004, published 2008).

The subject of experiment [1] is Sca1+lin− bone marrow cells. Nature of the experiment: Colony-forming cell (CFC) assay after 7 day culture with OPN. The format is cell-based, mouse. The settings on record: after 7 days culture with OPN 1 μg/ml versus without OPN, n=5. How it is done:
(§1) FIGS. 5A-5C are graphs showing that soluble OPN induces apoptosis of primitive hematopoietic cells. Sca1^+lin^− cells were isolated from the bone marrow of C57B1/6 mice and cultured in IMDM containing 10% fetal calf serum (FCS), stem cell factor (SCF), Flt-3, thrombopoietin (TPO) and IL-3 with or without OPN [1 μg/ml]. After 7 days the cells were counted and analyzed in functional hematopoietic assays.
(§2) Exogenous OPN was used to assess its potential role in regulating primitive cells directly rather than through the altered expression of other regulators within the niche. Initial experiments cultured Sca1^+lin^− bone marrow cells of C57B1/6 mice in medium containing stem cell factor (SCF), Flt-3, thrombopoietin (TPO), and IL-3 with and without OPN for 7 days. The cells were subsequently counted and analyzed in functional in vitro progenitor and stem cell assays. Addition of soluble OPN led to a lower total cell number with an unperturbed absolute number of CFCs representing hematopoietic progenitor cell activity (n=5) (FIG. 5A).
(§3) Mouse bone marrow was obtained from 8-12 week old 129/C57BL/6 OPN^+/+ and 129/C57BL/6 OPN^−/− mice, sacrificed with CO2. Bone marrow cell and spleen cell suspensions were flushed from femurs and tibias or take from spleen, filtered through 100 μm-mesh nylon cloth (Sefar America Inc., Kansas City, Mo.), and stored on ice until use. […]

For experiment [2], the system named is Sca1+lin− bone marrow cells. Nature of the experiment: Limiting dilution LTC-IC assay after 7 day culture with OPN. The format is cell-based, mouse. The settings on record: after 7 days culture with OPN 1 μg/ml; without OPN 35.9±5.14; P=0.002, n=5. On the procedure: as §1
Exogenous OPN was used to assess its potential role in regulating primitive cells directly rather than through the altered expression of other regulators within the niche. Initial experiments cultured Sca1^+lin^− bone marrow cells of C57B1/6 mice in medium containing stem cell factor (SCF), Flt-3, thrombopoietin (TPO), and IL-3 with and without OPN for 7 days. The cells were subsequently counted and analyzed in functional in vitro progenitor and stem cell assays. […]
To quantify the stem cells in the bone marrow and spleen cell suspension, the CAFC assay^36 was adapted with minor modifications as described in our previous publication^37. To measure long term culture-initiating cells (LTC-IC) the semisolid, cytokine containing methylcellulose medium for CFC was overlaid into the wells at week 5 and the colonies were counted at day ten. […]

For experiment [3], the system named is Jagged1. Nature of the experiment: Jagged1 expression by RT-PCR in wild-type bone marrow stroma exposed to OPN ex vivo. It is filed as cell-based, mouse. The settings on record: OPN 1 ug/ml, four hours ex vivo. The text has this: FIGS. 4A-4F are graphs showing that OPN^−/− bone marrow has unaltered cell cycle profiles associated with increased stromal Jagged1 and Angiopoietin-1 expression and reduced primitive cell apoptosis. FIG. 4A is a graph showing that bone marrow Sca1^+ c-kit^+lin^− cells that show bright staining for Hoechst33342 are cells in the G2/M phase of the cell cycle (n=3 pairs). […] Data are the result of two independent experiments with four mice per group in each experiment. […] Data were normalized to an intrasample GAPDH standard and the results of the OPN^−/− versus OPN^+/+ cells were compared by ratio. […] Data are normalized against GAPDH expression measured by RT PCR. […] AnnexinV-positive/7-AAD-negative apoptotic Sca1^+c-kit^+lin^− cells are shown (n=4 pairs). […] Analyses were performed on the lin^− fraction twelve weeks after transplantation (n=4).
Stem cell expansion may occur without increased proliferation in the context of Notch1 activation where stem cell self renewal is favored over differentiation^23,24. Activation of Notch1 on primitive hematopoietic cells in vivo was previously shown to result in an increase in primitive cells, but reduced progenitor cells similar phenotype to that reported herein^23. […]
The expression of Jagged1, Angiopoietin1 and N-cadherin in bone marrow stroma cells was measured by RT-PCR. […]

Experiment [4] has as its system Sca1+lin− bone marrow cells. Nature of the experiment: Culture of Sca1+lin− bone marrow cells with or without soluble OPN for 7 days, cells counted. The format is cell-based, mouse. The settings on record: Sca1+lin− cells of C57B1/6 mice, 7 days in SCF, Flt-3, TPO, IL-3, OPN 1 μg/ml, versus without OPN. How it is done:
as §1, §2, §3

Experiment [5] concerns lin− primitive hematopoietic cells. Nature of the experiment: Apoptosis by AnnexinV / 7-AAD flow cytometry of cells cultured with OPN. It is filed as cell-based, mouse. The settings on record: cultured with OPN 1 μg/ml versus without OPN. On the procedure:
as §1
The fraction of apoptotic cells was next analyzed by staining with lineage markers, 7-AAD and AnnexinV. […] OPN exerted a pro-apoptotic effect on primitive cells potentially constraining the size of the stem cell pool.
Flow cytometry was used to quantify the hematopoietic cells at different stages in the peripheral blood and the bone marrow of the transplanted animals. […] To quantify the enriched stem cell phenotype (Sca1^+lin^−) in primary animals and in transplanted animals bone marrow cells were stained with biotinylated lineage antibodies (CD3, Ter119 (Pharmingen, San Diego, Calif.), CD4, CD8, B220, IgM, Gr-1 and Mac1 (Caltag, Burlingame, Calif.)), c-kit-APC (Pharmingen, San Diego, Calif.) and Sca1-PE (Caltag, Burlingame, Calif.). The cells were analyzed after labeling with the secondary antibody Streptavidin-PerCP (Becton Dickinson, Franklin Lakes, N.J.). […]

In experiment [6] the test system is Sca1+c-kit+lin− cells. Nature of the experiment: In vivo PTH treatment, Sca1+c-kit+lin− cells in bone marrow by flow cytometry. Also on record: species or system mouse. The settings on record: for magnitude of Sca1+c-kit+lin− increase induced by PTH, absolute number / magnitude of Sca1+c-kit+lin− increase induced by PTH, proportion: four weeks of PTH. On the procedure: FIG. 6 is a graph showing that OPN deficiency permits increased primitive hematopoietic cell compartment expansion after niche activation by parathyroid hormone (PTH): OPN^+/+ and OPN^−/− mice were treated with PTH by daily injection for 4 weeks. The bone marrow was analyzed by flow cytometry.
Parathyroid hormone is capable of activating niche osteoblasts and expanding the number of stem cells in vitro and in vivo in a Notch mediated manner. […] Stimulation with PTH increases OPN production leading to the hypothesis that the degree of stem cell expansion possible by PTH niche activation may be restricted by OPN. Using the OPN null or wild type mouse, the number of primitive cells was assessed following four weeks of PTH stimulation. A difference in the number of Sca1^+c-kit^+lin^− was noted between the OPN null and wild type mouse prior to PTH (FIG. 6). With PTH treatment, there was an increase in the Sca1^+c-kit^+lin^− cells in each genotypic background.
6-8 week old wild-type or null male mice were injected with rat PTH (1-34) (Bachem, Torrance, Calif.) (80 μg/Kg of body weight) or vehicle alone intraperitoneally 5×/week for 4 weeks (n=4-6/group). Animals were sacrificed and bone marrow cell isolated and analyzed as above.
Flow cytometry was used to quantify the hematopoietic cells at different stages in the peripheral blood and the bone marrow of the transplanted animals. Bone marrow nucleated cells were labeled with the leukocyte antibodies Ly5.1-PE and Ly5.2-biotin (Pharmingen, San Diego, Calif.), lineage antibodies (CD3-PerCP, CD4-PE, B220-PE, Ter119-PE, (Pharmingen, San Diego, Calif.), CD8-Tri, Gr-1-Tri, Mac1-PE (Caltag)), and stem cell markers (Sca1-Tri and PE, c-kit-Tri (Caltag, Burlingame, Calif.)). To quantify the enriched stem cell phenotype (Sca1^+lin^−) in primary animals and in transplanted animals bone marrow cells were stained with biotinylated lineage antibodies (CD3, Ter119 (Pharmingen, San Diego, Calif.), CD4, CD8, B220, IgM, Gr-1 and Mac1 (Caltag, Burlingame, Calif.)), c-kit-APC (Pharmingen, San Diego, Calif.) and Sca1-PE (Caltag, Burlingame, Calif.). The cells were analyzed after labeling with the secondary antibody Streptavidin-PerCP (Becton Dickinson, Franklin Lakes, N.J.). For cell cycle analyses bone marrow cells were incubated with stem cell markers and the DNA dye Hoechst33342. The proportion of apoptotic cells were measured by staining with AnnexinV (Caltag, Burlingame, Calif.) and the DNA-dye 7-AAD (Sigma, St. Louis, Mo.).

Take “OPN: Osteopontin, a secreted, highly acidic glycoprotein; OPN protein was obtained from R&D Systems”: the “absolute number of CFCs” value in experiment [1] is on record as “unperturbed”. Also, the “absolute number of LTC-ICs” value in experiment [2] came out at 16.41±4.5 LTC-ICs/well. In addition, the “Jagged1 expression (RT-PCR, normalized to GAPDH)” value in experiment [3] was “statistically significantly reduced”. In addition, the total cell number entry in experiment [4] is “lower”. For the same substance, the “percentage of AnnexinV+7-AAD− cells in the lin− cell population” value in experiment [5] is “higher percentage”.
For the substance “PTH: rat PTH (1-34) (Bachem), parathyroid hormone used to activate niche osteoblasts (AVSEIQLMHNLGKHLASVERMQWLRKKLQDVHNF; Parathyroid hormone; UniProt P04089 32-65, looked up, fragment)”, the “Sca1+c-kit+lin− cells after PTH treatment” value in experiment [6] (OPN null and wild type mice, 80 μg/Kg i.p. 5×/week for 4 weeks) is reported as “increase”. Besides, in experiment [6] (OPN null mice), the “magnitude of Sca1+c-kit+lin− increase induced by PTH, absolute number” value is given as 5.94×10^4 stem cells per femur pair and the “magnitude of Sca1+c-kit+lin− increase induced by PTH, proportion” value was determined as 10.0%. Further, in experiment [6] (wild type mice), the “magnitude of Sca1+c-kit+lin− increase induced by PTH, absolute number” value is given as 3.82×10^4 stem cells per femur pair and the “magnitude of Sca1+c-kit+lin− increase induced by PTH, proportion” value came out at 7.5%.
